Where two headings read alike, the source gives them in different places.

Assay [1] concerns CEM-VCR bulk human T-lymphoblastic leukemia, vincristin resistant. Description: MTT cytotoxicity assay, CEM-VCR bulk. It counts as cell-based. The conditions noted are these: Homo sapiens, 72 hours, read-out: TCS50. The text has this:
(§1) One of the parameters used as the basis for colorimetric assays is the metabolic activity of viable cells. For example, a microtiter assay which uses the tetrazolium salt MTT is now widely used to quantitate cell proliferation and cytotoxicity [Hajdúch M, Mihál V, Minarík J, Fáber E, Safárová M, Weigl E, Antálek P.: Cytotechnology, 1996, 19, 243–245]. For instance, this assay is used in drug screening programs and in chemosensitivity testing. Because tetrazolium salts are cleaved only by metabolically active cells, these assays exclusively detect viable cells. In the case of the MTT assay, yellow soluble tetrazolium salt is reduced to a coloured water-insoluble formazan salt. After it is solubilized, the formazan formed can easily and rapidly be quantified in a conventional ELISA plate reader at 570 nm (maximum absorbancy). The quantity of reduced formazan corresponds to the number of vital cells in the culture. […]
(§2) The cell suspensions that were prepared and diluted according to the particular cell type and the expected target cell density (2,500–30,000 cells per well based on cell growth characteristics) were added by pipette (80 μl) into 96/well microtiter plates. […] Usually, test compounds were evaluated at six 4-fold dilutions. […] The tumour cell survival (TCS) was calculated using the following equitation: TCS=(ODdrug exposed well/mean ODcontrol wells)×100%. […]
(Tetrazolium assays rely on reduction of a dye to a coloured formazan, in cell work by metabolically active cells.)

Assay [2] concerns Saos2 human, p53−/−, Rb−/−. Nature of the assay: MTT cytotoxicity assay, Saos2. In kind it is cell-based. The conditions noted are these: Homo sapiens, SAOS-2, 72 hours, read-out: TCS50.
Text: as §1, §2

In assay [3] the test system is K562-GEM human promyelocytic leukemia, gemcitabin resistant. Nature of the assay: MTT cytotoxicity assay, K562-GEM. In kind it is cell-based. The conditions noted are these: Homo sapiens, 72 hours, read-out: TCS50.
Text: as §1, §2

Assay [4] relates to K562-FLUD human promyelocytic leukemia, fludarabin resistant. Description: MTT cytotoxicity assay, K562-FLUD. It counts as cell-based. The conditions noted are these: Homo sapiens, 72 hours, read-out: TCS50.
Text: as §1, §2

Assay [5] concerns B16F mouse melanoma, metastatic. Description: MTT cytotoxicity assay, B16F. The conditions noted are these: Mus musculus, 72 hours, read-out: TCS50. It counts as cell-based.
Text: as §1, §2

Assay [6] relates to K562-ARA-C human promyelocytic leukemia, cytarabin resistant. Description: MTT cytotoxicity assay, K562-ARA-C. In kind it is cell-based. The conditions noted are these: Homo sapiens, 72 hours, read-out: TCS50.
Text: as §1, §2

The test system of assay [7] is CEM human T-lymphoblastic leukemia. Description: MTT cytotoxicity screening assay, CEM. It counts as cell-based. From the text: One of the parameters used as the basis for colorimetric assays is the metabolic activity of viable cells. For example, a microtiter assay which uses the tetrazolium salt MTT is now widely used to quantitate cell proliferation and cytotoxicity [Hajdúch M, Mihál V, Minarík J, Fáber E, Safárová M, Weigl E, Antálek P.: Cytotechnology, 1996, 19, 243–245]. For instance, this assay is used in drug screening programs and in chemosensitivity testing. Because tetrazolium salts are cleaved only by metabolically active cells, these assays exclusively detect viable cells. In the case of the MTT assay, yellow soluble tetrazolium salt is reduced to a coloured water-insoluble formazan salt. After it is solubilized, the formazan formed can easily and rapidly be quantified in a conventional ELISA plate reader at 570 nm (maximum absorbancy). The quantity of reduced formazan corresponds to the number of vital cells in the culture.
Human T-lymphoblastic leukaemia cell line CEM was used for routine screening of these compounds. […] The cells were maintained in Nunc/Corning 80 cm^2 plastic tissue culture flasks and cultured in cell culture medium (DMEM with 5 g/l glucose, 2 mM glutamine, 100 U/ml penicillin, 100 μg/ml streptomycin, 10% foetal calf serum and sodium bicarbonate). Individual compounds were dissolved in 10% diiethylsulfoxide/saline, pH 8.0.
The cell suspensions that were prepared and diluted according to the particular cell type and the expected target cell density (2,500–30,000 cells per well based on cell growth characteristics) were added by pipette (80 μl) into 96/well microtiter plates. Inoculates were allowed a pre-incubation period of 24 hours at 37° C. and 5% CO2 for stabilisation. Four-fold dilutions of the intended test concentration were added at time zero in 20 μl aliquots to the microtiter plate wells. Usually, test compounds were evaluated at six 4-fold dilutions. In routine testing, the highest well concentration was 250 μM, but it may differ, depending on the agent. All drug concentrations were examined in duplicate. Incubations of cells with the test compounds lasted for 72 hours at 37° C., in 5% CO2 atmosphere and 100% humidity. At the end of the incubation period, the cells were assayed by using the MTT assay. […] After this incubation period, formazan was solubilized by the addition of 100 μl/well of 10% SDS in water (pH=5.5) followed by further incubation at 37° C. overnight The optical density (OD) was measured at 540 nm with the Labsystem iEMS Reader MF(UK). The tumour cell survival (TCS) was calculated using the following equitation: TCS=(ODdrug exposed well/mean ODcontrol wells)×100%. The TCS50 value, the drug concentration lethal to 50% of the tumour cells, was calculated from the obtained dose response curves. […]

Assay [8] deals with K562 human promyelocytic leukemia. Nature of the assay: MTT cytotoxicity assay, K562. It counts as cell-based. The conditions noted are these: Homo sapiens, 72 hours, read-out: TCS50.
Text: as §1, §2

Another assay has as its system MEL-3 human melanoma. Nature of the assay: MTT cytotoxicity assay, MEL-3. It counts as cell-based. The conditions noted are these: Homo sapiens, 72 hours, read-out: TCS50.
Text: as §1, §2

The test system of assay [9] is CEM-DNR 1/C2 human T-lymphoblastic leukemia, daunorubicin resistant. Description: MTT cytotoxicity assay, CEM-DNR 1/C2. It counts as cell-based. The conditions noted are these: Homo sapiens, 72 hours, read-out: TCS50.
Text: as §1, §2

The subject of assay [10] is HepG2 human hepatocellular carcinoma. Nature of the assay: MTT cytotoxicity assay, HepG2. Particulars: Homo sapiens, 72 hours, read-out: TCS50. In kind it is cell-based.
Text: as §1, §2

Assay [11] concerns CEM-VCR 1/F3 human T-lymphoblastic leukemia, vincristin resistant. Nature of the assay: MTT cytotoxicity assay, CEM-VCR 1/F3. In kind it is cell-based. Particulars: Homo sapiens, 72 hours, read-out: TCS50.
Text: as §1, §2

Assay [12] concerns Caco-2 human colon cancer. Nature of the assay: MTT cytotoxicity assay, Caco-2. The conditions noted are these: Homo sapiens, 72 hours, read-out: TCS50. In kind it is cell-based.
Text: as §1, §2

Assay [13] relates to U2OS human osteosarcoma, p53+/−, Rb+/−. Nature of the assay: MTT cytotoxicity assay, U2OS. It counts as cell-based. The conditions noted are these: Homo sapiens, 72 hours, read-out: TCS50.
Text: as §1, §2

In a further assay the test system is U87MG human glioblastoma. Description: MTT cytotoxicity assay, U87MG. It counts as cell-based. The conditions noted are these: Homo sapiens, U-87 MG, 72 hours, read-out: TCS50.
Text: as §1, §2

The test system of the next assay is human normal lymphocytes. Nature of the assay: MTT cytotoxicity assay, normal lymphocytes. In kind it is cell-based. The conditions noted are these: Lymphocyte, 72 hours, read-out: TCS50.
Text: as §1, §2

Assay [14] deals with BT549 human breast cancer, p53mut/mut. Nature of the assay: MTT cytotoxicity assay, BT549. In kind it is cell-based. The conditions noted are these: Homo sapiens, BT-549, 72 hours, read-out: TCS50.
Text: as §1, §2

Assay [15] deals with K562-CdA human promyelocytic leukemia, cladrubin resistant. Nature of the assay: MTT cytotoxicity assay, K562-CdA. Particulars: Homo sapiens, 72 hours, read-out: TCS50. In kind it is cell-based.
Text: as §1, §2

The test system of assay [16] is SW620 human colon cancer, metastasis. Nature of the assay: MTT cytotoxicity assay, SW620. The conditions noted are these: Homo sapiens, SW-620, 72 hours, read-out: TCS50. It counts as cell-based.
Text: as §1, §2

Assay [17] has as its system CEM-DNR bulk human T-lymphoblastic leukemia, daunorubicin resistant. Nature of the assay: MTT cytotoxicity assay, CEM-DNR bulk. Particulars: Homo sapiens, 72 hours, read-out: TCS50. In kind it is cell-based.
Text: as §1, §2

Assay [18] has as its system NIH3T3 mouse immortalised fibroblasts. Description: MTT cytotoxicity assay, NIH3T3. It counts as cell-based. Particulars: Mus musculus, 72 hours, read-out: TCS50.
Text: as §1, §2

In a further assay the test system is HT-29 human colon cancer. Description: MTT cytotoxicity assay, HT-29. It counts as cell-based. Particulars: Homo sapiens, 72 hours, read-out: TCS50.
Text: as §1, §2

For the next assay, the system named is B16 mouse melanoma. Nature of the assay: MTT cytotoxicity assay, B16. It counts as cell-based. Particulars: Mus musculus, 72 hours, read-out: TCS50.
Text: as §1, §2

Assay [19] relates to CEM-VCR 3/D5 human T-lymphoblastic leukemia, vincristin resistant. Nature of the assay: MTT cytotoxicity assay, CEM-VCR 3/D5. It counts as cell-based. The conditions noted are these: Homo sapiens, 72 hours, read-out: TCS50.
Text: as §1, §2

The subject of another assay is H3 histone (Lys9). Description: Histone acetylation, Western blot in CEM cells. It counts as cell-based, human. The procedure:
CEM cells were cultured in Dulbeco's modified essential medium with 4.5 g dextrose/l, 10% of foetal calf serum, 2 mM glutamine, 100 U/ml penicillin and 100 μg/ml streptomycin with/without the indicated concentrations of HDAC inhibitor TSA or I.3. At selected time points, cells were harvested, washed in ice cold Hank's balanced salt solution and solubilized on ice using SDS-PAGE sample buffer containing protease and phosphatase inhibitors (10 μg/ml of leupeptin, 10 μg/ml of aprotinin, 10 μg/ml of soybean trypsin inhibitor, 100 μmol of benzamide, 1 mM of sodium vanadate, 1 mM of NaF, 1 mM of phenylphosphate) and boiled immediately.
Total cellular proteins (100 μg/well) were separated on SDS-PAGE electrophoresis, blotted on polyvinyldifluoride membranes and acetylated histone was detected using a anti-acetyl(Lys9)-histone H3 rabbit polyclonal antibody (Cell Signalling Technology, Beverly, Mass.; Cat# 9671L) and visualized by chemilumniuscence (ECL-Western Blotting System, Amersham). Details of the Western blot technique are described in Ausubel, F. M., Brent, R, Kingston, R. E., Moore, D. D., Seidman, J. G., Smith, J. A., Struhl, K. (Eds): Short Protocols in Molecular. Biology, 2nd edition, John Wiley & Sons, New York, Chichester, Brisbane, Toronto, Singapore, 1992, page 10–33–10–35.

The subject of assay [20] is human SK-N-AS neuroblastoma. Nature of the assay: In vivo activity in xenotransplanted human neuroblastoma. The conditions noted are these: cisplatin 4 mg/kg subcutaneously 1×D1; SK-N-AS in nude mice (FIG. 2). The arrangement: species or system CD-1/Ctrl-1 nu/nu nude female mice. The procedure: Human neuroblastoma SK-N-AS cell line was obtained from ATTC. The line was cultured in Dulbeco's modified essential medium with 4.5 g dextrose/l, 10% of foetal calf serum, 2 mM glutamine, 100 U/ml penicillin and […] streptomycin. For transplantation purposes, only the cells in log phase were used.
CD-1/Ctrl-1 nu/nu nude female mice, 8 weeks old, 18–22 g weight were used in this study (IffaCredo, France). Animals were inoculated with 5.10^6 tumour cells subcutaneously into right inquinal region. Following transplantation, tumor growth was measured in both the control/vehicle and the treated groups using calipers. Tumor volume (TV) was calculated as follows: TV=(a^2×b)/2, where a is width and b is length The statistical significance was evaluated using a […].
Cisplatin (Platidiam 10 inj, sicc., Lachema, Czech Republic) was used as a control drug in this experiment. It was diluted in apyrogenic water and applied to animals in a final volume of 0.18 ml subcutaneously at day 1.
I.3 was synthesised as described above. It was suspended at 10 mg/ml in 5% dextrose and pH was adjusted to 8.0 with sodium hydroxide. vehicle: 5% dextrose with pH adjusted to 8.0 with sodium hydroxide. […]

For the compound `C=C(C)[C@@H]1CC[C@]2(C(=O)O)CC[C@]3(C)[C@H](CC[C@@H]4[C@@]5(C)CC[C@H](O)C(C)(C)[C@@H]5CC[C@]43C)[C@@H]12` [Betulinic acid, betulinic acid, reference compound], the IC50 in [1] was 69 µM; in assay [2] it was 250 µM; in [3], 101 µM; in [4], 250 µM; in assay [5] it was 4.6 µM; in assay [6], 250 µM. In addition, the IC50 in assay [7] (Homo sapiens, CEM, MTT assay, 72 hours, read-out: TCS50) came to 250 µM; in assay [8] it was 250 µM; with MEL-3 human melanoma it was 2.7 µM; in [9], 250 µM; in assay [10], 3.6 µM; in [11] it was 19 µM. Besides, the IC50 came to 20 µM in assay [12]; 250 µM in [13]; 250 µM in the assay on U87MG human glioblastoma; 250 µM in the assay with human normal lymphocytes; 250 µM in assay [14]; 250 µM in assay [15]. The IC50 worked out at 250 µM in [16]; 250 µM in assay [17]; 250 µM in assay [18]; 250 µM in the assay on HT-29 human colon cancer; 36 µM in the assay with B16 mouse melanoma; 24 µM in assay [19].

Turning to `CC(/C=C/C(=O)NO)=C\[C@@H](C)C(=O)c1ccc(N(C)C)cc1` [TSA, trichostatin A, reference compound], the IC50 in assay [7] (CEM cells, as stated in the histone acetylation study, read-out: IC50) came out at 0.24 µM. Further, in the assay with H3 histone (Lys9) (0.24 μM (IC50)), the “increase of histone acetylation” value was “no significant ability to increase histone acetylation”. The “acetylation of H3 histone in Lys9 position” value with H3 histone (Lys9) (Western blot (FIG. 5)) is listed as “rapidly acetylated”.

Turning to `N.N.[Cl][Pt][Cl]` [cisplatin, Cisplatin, reference compound], in [20], the “tumor growth (tumor volume)” value is recorded as “no significant activity”.

Source of the values: patent US7041701B2, “Triterpenoid derivatives” (Univerzita Palackeho V Olomouci, priority 2000, dated 2006).
